Reference: paper PMC5733301, “Antitubercular Nitroimidazoles Revisited: Synthesis and Activity of the Authentic 3-Nitro Isomer of Pretomanid” (ACS Medicinal Chemistry Letters, 2017)
≈ marks a conversion by molar mass, not a printed value.

Tests used:
[1] = tested on: VERO cells; assay: Cytotoxicity against mammalian cells (VERO), 72 h assay; format: cell-based; details: Chlorocebus sabaeus, cytotoxicity toward VERO cells
[2] = tested on: M. tb (strain H37Rv); set-up: method as in PMID 25781074; details: aerobic, growth inhibition ≥90%, ref [15]; cited from earlier work
[3] = tested on: M. tb (strain H37Rv); set-up: method as in PMID 25781074; details: hypoxic, growth inhibition ≥90%, ref [15]; cited from earlier work
[4] = set-up: method as in PMID 23733467; details: MDR-TB patients; ref [14]; cited from earlier work
[5] = tested on: M. tb; set-up: method as in PMID 19209889; details: ref [22]; cited from earlier work
[6] = tested on: Mycobacterium tuberculosis (M. tb); set-up: method as in PMID 19209889; details: vs 4; ref [22]; cited from earlier work
[7] = tested on: M. tb; set-up: method as in PMID 19209889; details: ref [22]; cited from earlier work; remark: listed apart in the source
[8] = tested on: M. tb (strain H37Rv); assay: MABA, MIC against M. tb under aerobic conditions; format: cell-based, Mycobacterium tuberculosis
[9] = tested on: M. tb (strain H37Rv); assay: LORA, MIC against M. tb under hypoxic conditions (nonreplicating persistent bacteria); format: cell-based, Mycobacterium tuberculosis; details: vs 4 and 3

In the case of `O=[N+]([O-])c1cn2c(n1)OC[C@@H](OCc1ccc(OC(F)(F)F)cc1)C2` [compound 4, pretomanid], the IC50 [1] is given as greater than 128 µM, the “MIC MABA” value [2] is given as 0.50 ± 0.30 µM (≈ 0.18 µg/mL) and the “MIC LORA” value [3] is given as 2.6 ± 1.4 µM (≈ 0.934 µg/mL).
For `Cc1ncc([N+](=O)[O-])n1CCO` [MET, metronidazole], the “neurotoxicity in long-term use” value [4] is listed as “too neurotoxic for long-term use”.
For `O=[N+]([O-])c1cn2c(n1)O[C@H](COCc1ccc(OC(F)(F)F)cc1)C2` [compound 20], the “aerobic MIC99” value [5] is given as 4 to 8 µM, the “less active than 4” value [6] is given as 5- to 10 fold and the “anaerobic MIC90” value [7] is given as 31 µM.
In the case of `O=[N+]([O-])c1cnc2n1C[C@H](OCc1ccc(OC(F)(F)F)cc1)CO2` [compound 8], the “loss in activity in comparison to its 2-nitro isomer, 4” value ([8]; M. tb MIC vs 4) is reported as greater than 256 fold.
In the case of `Cc1cc(CO[C@@H]2COc3nc([N+](=O)[O-])cn3C2)ccc1OC(F)(F)F` [compound 9], the “better than both 4 and linezolid (3) in LORA” value [9] is reported as “about three-fold”, the “more active than both 4 and moxifloxacin (6) in MABA” value ([8]; MABA, vs 4 and 6) is reported as “seven- to eight-fold” and the “more potent than pretomanid in the aerobic assay” value ([8]; MABA, vs pretomanid) is reported as “eight-fold”.
